Values of other authors in article doi:10.1101/2025.05.13.653654v1, “PEPlife2: A Updated Repository of the Half-life of Peptides” (bioRxiv, 2025).

Source text: Our database includes various chemical modifications aimed at enhancing the stability of peptides or proteins, such as PEGylation, Fc-conjugation, amino acid replacements (e.g., Lys substitutions followed by fatty acid conjugation), D-amino acid substitutions, non-natural amino acid substitutions (e.g., Aib, Sar, pGlu), cyclization, amidation, acetylation, and others.

Row | Half life | Substance | half-life (approximate values, effect of N-terminal acetylation and C-terminal amidation, matrix not given, curated database entry, ref not given)
1 | 1.16 h | CMPRLRGC [VH434] | –
2 | – | DRVYIHP [Ang(1-7)] | approximately 9 minutes
3 | 3.03 h | cMPRLRGC [VH445] | –
